Patent publication US8134010B2, “Thiazole-based nitric oxide donors having aryl substituent(s) and uses thereof” (priority 2004, dated 2012)
“Also recorded” adds a separate entry of the source.

How the values were obtained:
[1] = test system: isolated rat aorta; assay: In vitro induction of tolerance to NO releasing compounds (vasorelaxation of pre-exposed aortic rings); format: cell-based; conditions: rings pre-treated with epinephrine and then with 0.44 mM of the same compound
Protocol: Aortic rings were prepared as described hereinabove, and were exposed to 0.44 mM GTN (vehicle was water:ethanol:propyleneglycol at proportional ratio of 1:1:1) for 1 hour before CCRC construction, to thereby induce tolerance to nitroglycerine. At the end of the tolerance induction period, rings were thrice washed with the path buffer (Krebs-bicrbonate) every 15 minutes for the following hour and then CCRC for vasorelaxation on GTN-induced tolerance rings were constructed for GTN (pretreated versus untreated rings, FIG. 15), in order to verify the ability to induce and measure GTN tolerance induction in vitro
Attempted induction of tolerance to the NO-donating compounds of the present invention was performed under the same conditions as for GTN. Thus, in an exemplary experiment, rings were exposed to 0.44 mM solution of Pet-3 in the attempt to induce tolerance for Pet-3. CCRC were then measured for the vasorelaxing effect of Pet-3 on a group of rings which were pre-exposed to Pet-3 as to induce tolerance to Pet-3, and for an untreated control group. The above protocol was repeated with Pet-2, Pet-7, Pet-8, Pet-12, Pet-24, Pet-43, Pet-149 and Pet-152.

[2] = test system: cyclic-GMP in isolated aorta of rats; assay: Induction of in vivo nitrate tolerance (cGMP in isolated aorta of rats pre-treated in vivo); design: species or system rat; conditions: rats pre-treated in vivo with the same compound
Protocol: For c-GMP levels and tolerance development, the rat's thoracic aorta was isolated after exposure to the tested compound in vivo, and measured as described above in the in vitro assays.
Male Sprague Dawley rats (220 to 250 grams) were housed under constant temperature and humidity conditions. Light was maintained at a 12/12 light dark cycle. Except for 12 hours before the experiment, when food fasting was initiated, all rats had free access to standard rat pellet diet and tap water. The animals were anesthetized by intraperitoneal injection of ketamine and xylazine combination (50 and 10 milligram per kilogram, respectively). […] The catheters were filled with normal saline solution containing 1000 IU/ml of heparin and plugged with a metal pin. Catheters were externalized to the back of the neck region and secured by a polyester felt disk.
After implantation, the rats were individually housed until they regained their preoperative weight and appeared healthy (3 to 4 days post-operation). At this time point (day 0), an osmotic mini-pump (Alza Corp., Palo Alto, Calif.) delivering constant volume (10 μl/hour) of vehicle or drug was connected to one of the intravenous catheters.
For inducing tolerance to the tested NO-donor according to the present invention, the animals received 200 μg/hour of the tested compound for 16 hours (short-term-induced tolerance). A similar number of animals were processed by the same surgical procedure and received the vehicle alone (10 μl/hour of a solution consisting of 30% ethanol and 30% propylene glycol in sterile distilled water for injection).
At the end of the infusion periods used for the development of tolerance (16 hour), the rats were anesthetized as described above, the two catheters were externalized and the delivering catheters were disconnected from the mini-pump. The abdomen was opened by midline incision and the thoracic aorta were isolated, washed and cleaned from the surrounding tissues. […]

[3] = test system: hypertensive Sprague-Dawley male rats; assay: Hypotensive effects: mean arterial pressure during intravenous bolus doses; format: in vivo, rat; conditions: rats given phenylephrine
Protocol: Mean arterial pressure (MAP) was monitored and determined during bolus infusion of Pet-2, Pet-3, Pet-7, Pet-8, Pet-12 and Pet-13. Briefly, polyethylene catheters (PE50) were inserted into the carotid artery and into the jugular vein of anesthetized hypertensive Sprague-Dawley male rats (200-300 grams). A blood pressure recorder was placed within the carotid artery. Phenylephrine (0.1 mg) was then injected and the mean arterial blood pressure (MABP) was monitored continuously until a stable baseline was reached. The hypotensive effects of intravenous (iv) bolus doses (0.1 mg of each tested compound) administered intravenously at the jugular vein in minimal volume of vehicle (0.2 ml per dose) were evaluated. Five minutes were allowed between each dose, during which the maximal decrease in MAP was recorded and a dose-response graph comparing the hypotensive effect of the compounds was constructed.

[4] = test system: isolated rat aorta; assay: Cross-tolerance studies on aortic rings (GTN / Pet-12 pre-treatment); format: cell-based
Protocol: Cross-tolerance studies were conducted using the same technique described above for measuring vasorelaxation of aortic rings from rats. Two groups of aortic rings samples were pre-treated with GTN, then one group was measured for vasorelaxation by GTN and the second group for vasorelaxation by Pet-12, an exemplary NO-donor according to the present invention. For the opposite cross-tolerance studies, two groups of aortic rings samples were pre-treated with Pet-12, then one group was measured for vasorelaxation by GTN and the second group for vasorelaxation by Pet-12.

In the case of Cc1nc(-c2cccnc2)sc1CCO[N+](=O)[O-] [Pet-12, 3-[4-Methyl-5-(2-nitrooxy-ethyl)-thiazole-2-yl]-pyridine], the “tolerance induction in vitro (vasorelaxation, pre-treated versus control rings)” value [1] is reported as “absence of tolerance induction”, the “tolerance induction by cyclic-GMP accumulation in aorta of rats pre-treated in vivo” value [2] is reported as “lack of tolerance induction; also recorded: absence of tolerance induction” and the “activity as hypotensive agents (MAP)” value [3] is reported as “high activity”. The “vasorelaxation in rings made tolerant to GTN (cross-tolerance)” value ([4]; aorta pre-treated with GTN) was “has no effect on the vasorelaxation capacity of Pet-12; also recorded: absence of tolerance induction effect” and the “tolerance induction in rings pre-treated with Pet-12 (cross-tolerance)” value ([4]; aorta pre-treated with Pet-12, vasorelaxation by Pet-12 and GTN) was “does not evoke tolerance to itself not to GTN; also recorded: absence of tolerance induction effect”.
